Measurements as given in patent US10828250B2, “Topical formulation” (LIMEWAY PHARMA DESIGN LIMITED, priority 2015, dated 2020).

Columns and labels:
[1] = saturated solubility of corticosteroids in liquid silicones and in propylene glycol:glycerol(:water) mixtures; format: physicochemical; details: for saturated solubility in propylene glycol:glycerol mixtures: as glycerol is added to propylene glycol, FIG. 8; for saturated solubility in propylene glycol:glycerol:water mixtures: as water is added to propylene glycol:glycerol 70:30, FIG. 9; for saturated solubility in liquid silicones: range of liquid silicones including caprylyl methicone, FIG. 1
Method: Similarly, active solubility may be reduced in the non-volatile residual phase. […] As glycerol is added to propylene glycol the solubility of FP and MF decreases. […] As water is added to propylene glycol:glycerol 70:30 the solubility of FP and MF decreases. Water may be present in certain embodiments of the formulation or may be present in the residual phase due to uptake of transepidermal water. Although water is a highly volatile solvent, humectant glycols retain water depending upon ambient conditions.

[2] = format: physicochemical
Excerpt: As described previously, diffusion coefficient-enhancing excipients (DC enhancers) for use in the present invention commonly comprise alcohol, acid or ester derivatives of C8-C22 hydrocarbons.
In the acid and alcohol series, FIG. 2, as carbon chain length increases, solubility in caprylyl methicone decreases to less than 0.1% w/w at C18, such that these higher carbon chain lengths may be considered unsuitable for use as the DC enhancer in the formulation of the present invention owing to low solubility-dissolution constraints. Conversely, lower carbon chain length acids and alcohols such as C8 and C10 alcohols and C8 and C10 acids may be considered to be far too soluble in hydrocarbyl methyl siloxanes including caprylyl methicone, such that their performance as diffusion coefficient-enhancing excipients would be adversely affected. Similarly, long chain (for instance C14-C16) isopropyl esters are far too soluble in hydrocarbyl methyl siloxanes such as caprylyl methicone to allow performance as DC enhancers. For both of these classes of DC enhancer, up to 50% DC enhancer would be required to be at or near saturation in the non-volatile residual phase. In contrast, the C12-C14 acids and C12 alcohol have appropriate solubility in caprylyl methicone.
Conversely, from C16-C22 solubility is too low to allow adequate performance. […]

Compound | saturated solubility in propylene glycol:glycerol mixtures [1] | saturated solubility in propylene glycol:glycerol:water mixtures [1] | saturated solubility in liquid silicones [1] | amount to saturate caprylyl methicone (solubility) [2] | amount to saturate propylene glycol (solubility) [2]
CCC(=O)O[C@]1(C(=O)SCF)[C@H](C)C[C@H]2[C@@H]3C[C@H](F)C4=CC(=O)C=C[C@]4(C)[C@@]3(F)[C@@H](O)C[C@@]21C [fluticasone propionate] | decreases | decreases | appropriately low | – | –
C[C@@H]1C[C@H]2[C@@H]3CCC4=CC(=O)C=C[C@]4(C)[C@@]3(Cl)[C@@H](O)C[C@]2(C)[C@@]1(OC(=O)c1ccco1)C(=O)CCl [mometasone furoate] | decreases | decreases | appropriately low | – | –
myrystyl alcohol [C14 alcohol] | – | – | – | 2.30% | 2.44%
